According to patent US20130158112A1, “COMPOSITIONS AND METHODS FOR INHIBITING BETA AMYLOID SECRETION” (priority 2011, published 2013):
Where “and” joins values, the source holds several entries; their conditions need not be identical. Identical values can stand only once. Entries after “also recorded” stand apart in the source; their conditions may differ. Like-named read-outs stand apart in the source and are kept apart here.

Assays:
Aβ secretion [1] = assay: Secreted total Aβ ELISA in conditioned media of H4βAPP695 wt cells; format: cell-based, human; conditions: H4βAPP695 wt cells
Procedure, shortened: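 H4 […] cells stably expressing wild-type βAPP695 (CMV promoter), serum-starved 24 h, then exposed to drug in DMSO or vehicle for 24 h before Aβ in conditioned media was measured. Primary cortical neurons came from E18 APPswe/PSEN1dE9 mice on C57BL/6 background.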

Aβ secretion [2] = assay: Secreted Aβ in cultured primary neurons from APP/PS1 transgenic mice; format: cell-based, mouse; conditions: 24 h incubation
Experimental: H4βAPP695 wt cells, a human […] cell line stably transfected with a wtβAPP695 expression vector construct under the control of a CMV promoter (kindly provided by Dr. Chris Eckman from Mayo Clinic, Florida) were cultured as previously described. Twenty-four hours before drug treatment, the media was replaced with serum-free media. Cells were then incubated with drugs (dissolved in DMSO) or vehicle for 24 h for collection of conditioned media and cell lysates. For the PKC inhibitors experiment, three inhibitors were treated 30 min prior to drug challenge. Primary cortical neurons were prepared from embryonic day 18 APP and presenilin 1 (APPswe, PSEN1dE9) transgenic mice on the C57BL/6 genetic background (Jackson Laboratories, strain no. 5864) as previously described. THLE-3 human hepatoma cells (from ATCC) were plated in 24-well plates that were precoated with 10 μg/mL bovine serum albumin, 10 μg/mL fibronectin, and 30 μg/mL bovine type I collagen. […] Transepithelial resistance was measured in each well and found to be >160 Ω/cm^2. […] Four hours later, the basal chamber media was harvested and used to measure lucifer yellow fluorescence to confirm monolayer integrity as well as for treatment of H4βAPP695 wt cells for 24 h prior to analysis of secreted Aβ, which was compared to the effect of direct addition of 10 μM of the corresponding drug.

APP [3] = assay: Western blot of APP processing products (sAPPα, sAPPβ, holoAPP, αCTF) in H4βAPP695 wt cells; format: cell-based, human; conditions: 10 μM, 24 h
Experimental: The alternate processing of holoAPP by either the β-secretase (a precursor to Aβ production) or α-secretase (which clips in the middle of the Aβ region) is shown in FIG. 2A. Compound 1 induced decrease in total Aβ secretion may be due to its effect on APP processing or due to decreased production of its precursor APP. To probe its mechanism, H4βAPP695 wt cells were treated with 10 μM 1 for 24 h. Using Western blot assays, we measured secreted APPα (sAPPα) and APPβ (sAPPβ) in the conditioned media, and full-length holo-APP and the 83 residue long α-C-terminal fragment (α-CTF) in cell lysate. […] Thus, 1 appears to decrease Aβ secretion by activating the α-secretase pathway, a favorable pathway as the large secreted sAPPα protein is reported to have neurotrophic and neuroprotective activities.

ADAM9 = assay: Western blot of pro and active ADAM9 in H4βAPP695 wt cells; format: cell-based, human; conditions: 24 h
Experimental: (§1) Several members of the ADAM (a disintegrin and metalloproteinase) family, ADAM9, ADAM10, and ADAM17, have been reported to have α-secretase activity. […] Using antibodies specific for these three ADAM proteases, we assessed the levels of the pro and active forms in cells cultured with increasing concentrations of compound 1. […] At the 10 μM dose of compound 1, we observed a 31% increase in the ratio of active/pro ADAM9 (p<0.05), N=3 each control and compound 1) and a 42% increase in the ratio active/pro ADAM10 (p<0.05). Although the direct target for compound 1 has not been identified, it seems likely that its mechanism is via the increased ADAM 9 and ADAM10 processing into active α-secretase, which cleaves APP in a manner that precludes Aβ production.

ADAM10 = assay: Western blot of pro and active ADAM10 in H4βAPP695 wt cells; format: cell-based, human; conditions: 24 h
Experimental: as §1

ADAM17 = assay: Western blot of pro and active ADAM17 in H4βAPP695 wt cells; format: cell-based, human; conditions: increasing concentrations, 24 h
Experimental: as §1

Aβ secretion [4] = assay: PKC inhibitors experiment on Aβ secretion; format: cell-based, human
Experimental: (§2) H4βAPP695 wt cells, a human […] cell line stably transfected with a wtβAPP695 expression vector construct under the control of a CMV promoter (kindly provided by Dr. Chris Eckman from Mayo Clinic, Florida) were cultured as previously described. Twenty-four hours before drug treatment, the media was replaced with serum-free media. Cells were then incubated with drugs (dissolved in DMSO) or vehicle for 24 h for collection of conditioned media and cell lysates. For the PKC inhibitors experiment, three inhibitors were treated 30 min prior to drug challenge. Primary cortical neurons were prepared from embryonic day 18 APP and presenilin 1 (APPswe, PSEN1dE9) transgenic mice on the C57BL/6 genetic background (Jackson Laboratories, strain no. 5864) as previously described. THLE-3 human hepatoma cells (from ATCC) were plated in 24-well plates that were precoated with 10 μg/mL bovine serum albumin, 10 μg/mL fibronectin, and 30 μg/mL bovine type I collagen. The cells were grown in BEGM media (Clonetics) until confluent and treated with drugs at 20 μM for 24 h. This conditioned media was harvested, diluted 1:1 in serum-free medium, and incubated with H4βAPP695 wt cells for 24 h prior to analysis of secreted Aβ, which was compared to the effect of 10 μM drug treatments without prior incubation with the THLE-3 cells. Caco-2 cells (ATCC) were plated in 12-well plates with Transwell inserts (Costar) at 70000 cells per well and grown for 21 days. The media volume of the apical and basal chambers was 0.5 and 1.5 mL, respectively. Transepithelial resistance was measured in each well and found to be >160 Ω/cm^2. Drugs at 40 μM and 20 μg/mL of lucifer yellow were added in serum-free medium to the apical chamber. Four hours later, the basal chamber media was harvested and used to measure lucifer yellow fluorescence to confirm monolayer integrity as well as for treatment of H4βAPP695 wt cells for 24 h prior to analysis of secreted Aβ, which was compared to the effect of direct addition of 10 μM of the corresponding drug.
The tumor promoter phorbal myristate acetate is an activator of protein kinase C (PKC) that has been reported to activate α-secretase activity. Thus, we wanted to determine if protein kinase C inhibitors could block the effect of compound 1 on Aβ secretion.

[5] = tested on: THLE-3 human hepatoma cells; assay: Drug activity persistence after incubation with THLE-3 hepatoma cells; format: in vitro ADME; conditions: Homo sapiens, THLE3, 24 h
Experimental: as §2
To screen for resistance to metabolism, 1 and eight noncytotoxic analogues with >50% Aβ reducing activity (compounds 27, 29, 48, 52, 53, 65, 73, and 76) were incubated at 20 μM for 24 h with or without THLE-3 human hepatoma cells.

Caco-2 cells = assay: Epithelial transcellular transport of drug activity through Caco-2 monolayers; format: in vitro ADME
Experimental: as §2
Monolayer integrity was confirmed by high levels of transcellular electrical resistance (>160 ohms/cm^2) and by transcellular impermeability to the fluorescent dye lucifer yellow. […] The concentration of each compound added to the upper chamber would lead to 10 μM in the lower chamber if equilibration was complete, and thus the activity of the lower chamber media was compared to the activity of 10 μM drug added directly to the H4βAPP695 wt cells. […] Compound 1 crossed the monolayer and the bottom chamber media led to a 27% reduction in Aβ production, yielding 38% of the theoretical activity. The compound with the most activity in the lower chamber was compound 48, which decreased Aβ production by 50%, with 71% of its theoretical activity. […] On the basis of the combined activity data from these last two studies, compound 48 was selected as the lead drug for in vivo study.

APP [6] = assay: Western blot of APP processing products (sAPPα, sAPPβ, holoAPP, αCTF) in H4βAPP695 wt cells; format: cell-based, human
H4βAPP695 wt cells = assay: Cytotoxicity by total cell protein content (BCA) of H4βAPP695 wt cells; conditions: 10 μM

In the case of `O=C(NCCSCc1cccc(Cl)c1)c1c(Cl)cccc1Cl` [Compound 1], the Aβ lowering activity (Aβ secretion [1]; 1 μM) is reported as “displayed Aβ lowering activity at 1 μM”, the “% β Decrease” value (Aβ secretion [1]; 10 μM, relative to vehicle treated control cells) is reported as 75.3% and the inhibition at 10 µM (Aβ secretion [1]; Homo sapiens, 24 h, 10 μM, relative to vehicle treated control cells, read-out: % β Decrease) is reported as 75.3 ± 11.6%. The “secreted Aβ levels in primary neurons” value (Aβ secretion [2]) was “effective in reducing secreted Aβ levels”, the “cellular full length (holo) APP level” value (APP [3]) was “without altering holoAPP levels” and the “increase of cellular α-CTF levels” value (APP [3]) was “over 2 fold”. The “increase of sAPPα levels” value (APP [3]) was “over 3 fold”, the “sAPPα level” value (APP [3]) was “caused an increase; also recorded: increased” and the sAPPβ level (APP [3]) was “without altering”. For the same compound, the “αCTF level” value (APP [3]) was “caused an increase; also recorded: increased”, the “increase in the ratio of active/pro ADAM9” value (ADAM9; 10 μM) was 31% and the “active ADAM9 / processing of ADAM9” value (ADAM9; increasing doses) was “dose dependent increase; also recorded: promotes cellular processing”. For the same compound, the “increase in the ratio active/pro ADAM10” value (ADAM10; 10 μM) was 42%, the “active ADAM10 / processing of ADAM10” value (ADAM10; increasing doses) was “dose dependent increase; also recorded: promotes cellular processing” and the “active form of ADAM17” value (ADAM17) was “did not observe much effect”. The “effect on Aβ secretion in presence of PKC inhibitors” value (Aβ secretion [4]) was “not blocked by PKC inhibitors”, the inhibition at 10 µM ([5]; 10 μM on H4 cells, without preincubation with hepatoma cells, read-out: hepatoma incubation No total Aβ (% decrease)) was 69.4% and the inhibition at 10 µM ([5]; 20 μM preincubated 24 h with THLE-3 hepatoma cells, diluted to 10 μM on H4 cells, read-out: hepatoma incubation Yes total Aβ (% decrease)) was 34.6%. For the same compound, the “% theoretical activity” value (Caco-2 cells; % of activity passing through Caco-2 monolayer) was 38% and 38.4%, the inhibition at 10 µM (Caco-2 cells; Homo sapiens, Caco-2, 10 μM drug alone added directly to H4βAPP695 wt cells, read-out: transcellular transport No total Aβ (% decrease)) was 69.4% and the inhibition at up to 10 µM (Caco-2 cells; Homo sapiens, Caco-2, 4 h, lower chamber media after 4 h on Caco-2 monolayer, 10 μM if in equilibrium, read-out: transcellular transport Yes total Aβ (% decrease)) was 27%. For the same compound, the “time at which α-CTF increase is first observed” value (APP [6]; 10 μM) was 2 h, the “time to maximal α-CTF levels” value (APP [6]; 10 μM) was at most 8 h and the “increase in cellular α-CTF in presence of cyclohexamide” value (APP [6]; 4 h treatment) was “not blocked”. For the same compound, the “cytotoxicity, measured by total cell protein content” value (H4βAPP695 wt cells) was “did not have significant cytotoxicity”.
